We go through ten molecules from patent US11999759B2, “Boronic acid derivatives and therapeutic uses thereof” (Qpex Biopharma, Inc., priority 2016, dated 2024).

Read-outs that look alike come from different tables or passages of the source.

Data set [1] in a line: Stability of compound 13 prodrugs in human liver microsomes (HLM). Format: in vitro ADME. The note with it: 0.500 mg/mL human liver microsomes, no cofactors, prodrug 1.00 μM; for half-life at 1 μM: pH 7.4, read-out: Estimated half-life (minutes) (rounded to nearest integer value). As for the experimental part:
In the meantime, a 20.0 mg/mL solution of human liver microsomes (XenoTech, LLC) was diluted to 1.00 mg/mL (2× final concentration). Esterase activity for each lot of microsomes used was established by assaying an unrelated ester prodrug as a control. Both the Eppendorfs for each timepoint and the diluted liver microsomes were then warmed to 37° C. in a water bath. No cofactors (e.g. NADPH) were added to ensure that only hydrolytic reactions as opposed to reactions mediated by other cofactor-dependent enzymes (e.g. CYP450 enzymes) would take place. To initiate the reaction, 50 μL of diluted human liver microsomes was added to tubes for all timepoints using a repeating-tip pipette, thereby bringing the final concentration of test compound to 1.00 μM and the final concentration of human liver microsomes to 0.500 mg/mL. At each timepoint, the reaction was halted and proteins precipitated through the addition of 200 μL of 10:45:45 water:methanol:acetonitrile v/v/v containing an unrelated ester prodrug at 250 ng/mL as an internal standard. […] Sample analysis for microsome stability experiments was conducted using a 20.0 μL injection on a LEAP PAL autosampler with Agilent 1100 binary pump HPLC coupled to an AB Sciex 3200 QTrap mass spectrometer. […] Detection was in positive mode; source parameters and parent-daughter ion selection criteria were chosen as needed for each compound to achieve an appropriate limit of detection and signal-to-noise ratio. The samples were analyzed together with appropriate blanks in order to ensure specificity. The rate of hydrolysis for each prodrug was determined by monitoring the concentration of test compound as follows. The peak area for the analyte was divided by the peak area for the internal standard to give an area ratio. The area ratio for each of the two replicates at each timepoint was divided by the area ratio for timepoint 0 to give the percent remaining at each timepoint. The natural logarithm of the percent remaining versus time for all replicates was plotted using Microsoft Excel and fitted to a linear trendline.

The target in another data set is CTX-M-14 (Escherichia coli, UniProt Q9L5C7). As to the kind of experiment: Inhibition of nitrocefin cleavage by purified CTX-M-14. The format is biochemical. The conditions noted are these: nitrocefin reporter substrate; 10 min preincubation at room temperature; read-out: Ki (CTX-M-14, NCF). As to the method: (§1) Ki values of inhibition of purified class A, C and D enzymes were determined spectrophotometrically using nitrocefin as reporter substrate. Purified enzymes were mixed with various concentrations of inhibitors in reaction buffer and incubated for 10 min at room temperature. Nitrocefin was added and substrate cleavage profiles were recorded at 490 nm every 10 sec for 10 min.

The target of the next data set is KPC-2 (Klebsiella pneumoniae, UniProt Q9F663). As to the kind of experiment: Inhibition of nitrocefin cleavage by purified KPC-2. The note with it: nitrocefin reporter substrate; 10 min preincubation at room temperature; read-out: Ki (KPC-2, NCF). The format is biochemical. As for the experimental part:
(§2) Ki values of inhibition of purified class A, C and D enzymes were determined spectrophotometrically using nitrocefin as reporter substrate. Purified enzymes were mixed with various concentrations of inhibitors in reaction buffer and incubated for 10 min at room temperature. Nitrocefin was added and substrate cleavage profiles were recorded at 490 nm every 10 sec for 10 min. These experiments confirmed that the described compounds are inhibitors with a broad-spectrum of activity towards various β-lactamases.

The next data set concerns the target OXA-23 (Acinetobacter baumannii, UniProt Q9L4P2). In words: Inhibition of nitrocefin cleavage by purified OXA-23. Format: biochemical. The note with it: nitrocefin reporter substrate; 10 min preincubation at room temperature; read-out: Ki (OXA-23, NCF). As to the method: as §2
A further data set has as its target NDM-1 (Klebsiella pneumoniae, UniProt C7C422). In words: Inhibition of imipenem cleavage by purified NDM-1. The format is biochemical. The conditions noted are these: imipenem reporter substrate; 37° C.; read-out: Ki (NDM-1, IMI). As to the method: Purified enzymes were mixed with various concentrations of inhibitors in reaction buffer and incubated for 10 min at room temperature. Imipenem was added and substrate cleavage profiles were recorded at 294 nm every 30 seconds for 30 minutes at 37° C.

The next data set deals with Pa-AmpC (Pseudomonas aeruginosa, UniProt P24735). As to the kind of experiment: biochemical. As to the method: as §1
The next data set has as its target VIM-1 (Pseudomonas aeruginosa, UniProt A0A0F7KYQ8). In words: Inhibition of nitrocefin cleavage by purified VIM-1. Format: biochemical. The conditions noted are these: nitrocefin reporter substrate; 10 min preincubation at room temperature; read-out: Ki (VIM-1, NCF).
Another data set concerns the target IMP-1 (Serratia marcescens, UniProt P52699). In words: Inhibition of imipenem cleavage by purified IMP-1. Format: biochemical. The note with it: imipenem reporter substrate; 37° C.; read-out: Ki (IMP-1, IMI). As to the method: Ki values of inhibition of purified class B enzymes NDM-1 and IMP-1 were determined spectrophotometrically using imipenem as reporter substrate. Purified enzymes were mixed with various concentrations of inhibitors in reaction buffer and incubated for 10 min at room temperature. Imipenem was added and substrate cleavage profiles were recorded at 294 nm every 30 seconds for 30 minutes at 37° C. These experiments further confirmed that the described compounds have the ability to inhibit carbapenemase activity of metallo-beta-lactamases.

A further data set addresses OXA-48 (Klebsiella pneumoniae, UniProt Q6XEC0). As to the kind of experiment: Inhibition of nitrocefin cleavage by purified OXA-48. Format: biochemical. The conditions noted are these: nitrocefin reporter substrate; 10 min preincubation at room temperature; read-out: Ki (OXA-48, NCF). As to the method: as §2
In another data set the target is P99 (Enterobacter cloacae, UniProt P05364). As to the kind of experiment: biochemical. The note with it: nitrocefin reporter substrate; 10 min preincubation at room temperature; read-out: Ki (P99, NCF). As to the method: as §1
Data set [2] deals with PAM1154/KPC-2 (lacked MexAB-OprM). In words: Biapenem potentiation (MPC64) in PAM1154/KPC-2. The format is cell-based, Pseudomonas aeruginosa. Further details: PAM1154/KPC-2 Biapenem MPC64: unit not given here. The conditions noted are these: BLI potency to decrease biapenem MIC 64-fold, from 32 to 0.5 μg/ml; efflux deficient strain. As to the method: (§3) Efflux of BLIs from Pseudomonas aeruginosa by the MexAB-OprM efflux pump was also evaluated. The plasmid expressing the gene encoding KPC-2 was introduced into two strains of P. aeruginosa, PAM1032 and PAM1154 that overexpressed or lacked MexAB-OprM, respectively. Due to expression of KPC-2 both strains became resistant to biapenem. […] Potency of BLIs to potentiate biapenem in these strains was determined. […] The ratio of MPC64 values for each BLI in PAM1032/KPC-2 (efflux proficient) and PAM1154/KPC-2 (efflux deficient) was determined to generate the Efflux Index (EI) as shown in Table 8.

Data set [3] relates to PAM1032/KPC-2 (overexpressed MexAB-OprM). As to the kind of experiment: Biapenem potentiation (MPC64) in PAM1032/KPC-2. Format: cell-based, Pseudomonas aeruginosa. Details: PAM1032/KPC-2 Biapenem MPC64: unit not given here. The conditions noted are these: BLI potency to decrease biapenem MIC 64-fold, from 32 to 0.5 μg/ml; efflux proficient strain. As for the experimental part: as §3

[4] abbreviates: nitrocefin reporter substrate, 10 min preincubation at room temperature, read-out: Ki (Pa-AmpC, NCF).

CTX-M-14, sequence (Q9L5C7 29-291, species assumed): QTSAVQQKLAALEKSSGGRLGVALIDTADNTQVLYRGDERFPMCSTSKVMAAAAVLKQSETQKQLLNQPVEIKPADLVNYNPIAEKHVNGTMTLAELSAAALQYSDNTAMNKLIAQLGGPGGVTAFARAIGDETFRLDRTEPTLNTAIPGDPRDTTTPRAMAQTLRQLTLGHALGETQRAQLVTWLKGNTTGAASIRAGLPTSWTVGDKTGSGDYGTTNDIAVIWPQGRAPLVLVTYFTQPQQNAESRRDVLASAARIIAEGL
Pa-AmpC, sequence (P24735 27-397): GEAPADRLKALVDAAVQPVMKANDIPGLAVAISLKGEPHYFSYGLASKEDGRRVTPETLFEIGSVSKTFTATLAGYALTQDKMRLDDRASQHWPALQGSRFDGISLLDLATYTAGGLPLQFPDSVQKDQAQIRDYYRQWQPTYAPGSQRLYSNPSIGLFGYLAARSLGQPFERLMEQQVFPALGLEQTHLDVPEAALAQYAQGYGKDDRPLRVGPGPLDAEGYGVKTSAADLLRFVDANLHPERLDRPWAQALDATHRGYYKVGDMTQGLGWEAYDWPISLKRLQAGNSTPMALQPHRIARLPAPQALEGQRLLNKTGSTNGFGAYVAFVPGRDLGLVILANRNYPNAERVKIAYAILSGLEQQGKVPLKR
OXA-48, sequence (Q6XEC0 23-265, looked up): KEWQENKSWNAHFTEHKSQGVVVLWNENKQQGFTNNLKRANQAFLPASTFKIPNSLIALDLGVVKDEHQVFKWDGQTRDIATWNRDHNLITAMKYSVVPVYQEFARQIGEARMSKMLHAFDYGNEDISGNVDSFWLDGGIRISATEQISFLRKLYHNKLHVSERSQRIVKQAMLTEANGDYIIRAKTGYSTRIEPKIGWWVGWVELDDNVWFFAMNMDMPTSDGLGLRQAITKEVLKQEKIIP
OXA-23, sequence (Q9L4P2 18-273): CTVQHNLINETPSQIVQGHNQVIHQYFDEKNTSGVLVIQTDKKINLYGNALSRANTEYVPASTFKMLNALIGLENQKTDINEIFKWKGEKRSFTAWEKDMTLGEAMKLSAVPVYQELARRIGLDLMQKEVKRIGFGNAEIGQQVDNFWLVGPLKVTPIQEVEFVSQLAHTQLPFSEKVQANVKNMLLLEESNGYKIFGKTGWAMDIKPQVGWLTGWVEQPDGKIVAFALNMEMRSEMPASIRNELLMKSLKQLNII
KPC-2, sequence (Q9F663 25-293 limits assumed): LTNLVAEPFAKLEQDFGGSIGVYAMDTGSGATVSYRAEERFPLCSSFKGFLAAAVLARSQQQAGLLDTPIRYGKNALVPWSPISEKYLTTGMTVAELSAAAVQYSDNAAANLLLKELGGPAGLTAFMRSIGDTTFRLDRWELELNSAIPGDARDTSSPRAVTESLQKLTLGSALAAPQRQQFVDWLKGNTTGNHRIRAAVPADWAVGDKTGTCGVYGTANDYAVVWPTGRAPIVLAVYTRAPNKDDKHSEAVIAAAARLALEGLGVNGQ
NDM-1, sequence (C7C422 29-270, looked up, species assumed): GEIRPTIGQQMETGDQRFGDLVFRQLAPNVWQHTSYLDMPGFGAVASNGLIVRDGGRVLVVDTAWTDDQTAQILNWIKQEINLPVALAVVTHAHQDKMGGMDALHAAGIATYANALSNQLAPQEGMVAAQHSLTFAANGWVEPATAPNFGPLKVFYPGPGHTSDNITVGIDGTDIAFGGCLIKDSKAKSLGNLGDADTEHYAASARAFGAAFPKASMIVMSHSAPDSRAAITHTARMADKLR
IMP-1, sequence (P52699 19-246, looked up, species assumed): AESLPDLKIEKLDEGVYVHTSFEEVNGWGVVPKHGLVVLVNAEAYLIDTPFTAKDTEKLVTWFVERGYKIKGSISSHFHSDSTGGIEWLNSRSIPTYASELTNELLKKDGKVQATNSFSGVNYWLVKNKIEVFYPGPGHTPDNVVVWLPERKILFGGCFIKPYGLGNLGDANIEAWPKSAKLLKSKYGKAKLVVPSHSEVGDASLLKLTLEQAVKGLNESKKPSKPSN
P99, sequence (P05364 21-381): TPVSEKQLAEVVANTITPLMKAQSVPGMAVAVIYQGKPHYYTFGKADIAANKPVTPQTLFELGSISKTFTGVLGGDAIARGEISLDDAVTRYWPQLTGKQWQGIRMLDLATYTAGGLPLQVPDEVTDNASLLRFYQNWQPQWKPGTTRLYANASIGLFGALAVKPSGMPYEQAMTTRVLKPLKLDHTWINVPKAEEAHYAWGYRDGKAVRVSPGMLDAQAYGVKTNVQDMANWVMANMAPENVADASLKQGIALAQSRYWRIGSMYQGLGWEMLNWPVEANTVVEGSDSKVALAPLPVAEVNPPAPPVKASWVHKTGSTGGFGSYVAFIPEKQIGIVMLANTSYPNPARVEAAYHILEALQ

On to `CCCC(=O)OCOC(=O)c1c(F)ccc2c1OB(O)[C@@H]1C[C@H]21` [Compound 26, Butanoyloxymethyl (1aR,7bS)-5-fluoro-2-hydroxy-1a,7b-dihydro-1H-cyclopropa[c][1,2]benzoxaborinine-4-carboxylate], for which, in data set [1], the “Average % of initial area ratio at t = 0 min” value stood at 100%, the “Average % of initial area ratio at t = 5 min” value stood at 73.4%, the “Average % of initial area ratio at t = 10 min” value is given as 55.9% and the “Average % of initial area ratio at t = 30 min” value stood at 11.9%. Also, the half-life (in general, the time needed for the level to fall by half in the phase considered) at 1 μM in data set [1] is 10 min.
`O=C(O)[C@H]1/C(=C/CO)O[C@@H]2CC(=O)N21` [Clavulanic Acid, reference compound]: the Ki (in general, a measure of affinity in units of concentration, obtained from inhibition or displacement) is < 100 nM at CTX-M-14; > 1000 nM at KPC-2; > 1000 nM on OXA-23; > 1000 nM at NDM-1; > 1000 nM at Pa-AmpC; > 1000 nM at VIM-1. The inhibitory constant (Ki) at IMP-1 and at OXA-48 was > 1000 nM in each case.
Regarding `COc1ccc2c(c1C(=O)O)OB(O)C1=C2COC1` [Compound 24, 4,4-dihydroxy-7-methoxy-1,3-dihydrofuro[3,4-c][1,2]benzoxaborinine-6-carboxylic acid], the Ki is < 100 nM at CTX-M-14; < 100 nM at KPC-2; < 100 nM on OXA-23; 100 to 1000 nM on NDM-1; < 100 nM at P99; < 100 nM at Pa-AmpC (setting [4]). The Ki on VIM-1 was > 1000 nM; on IMP-1, > 1000 nM; on OXA-48, < 100 nM.
For the molecule `O=C(O)c1nccc2c1OB(O)[C@H]1C[C@@H]21` [Compound 20, (1aS,7bR)-2-hydroxy-1a,7b-dihydro-1H-cyclopropa[6,7]oxaborinino[2,3-c]pyridine-4-carboxylic acid], the Ki at CTX-M-14 is < 100 nM; on KPC-2, 100 to 1000 nM; at OXA-23, 100 to 1000 nM; at NDM-1, > 1000 nM; at P99, > 1000 nM; on Pa-AmpC (setting [4]), > 1000 nM. Further, the Ki at VIM-1 is > 1000 nM; on OXA-48, < 100 nM. Also, in data set [2], the “PAM1154/KPC-2 Biapenem MPC64” value amounted to 5. The “PAM1032/KPC-2 Biapenem MPC64” value in [3] stood at 5.
With `CC(=O)OCOC(=O)c1c(F)ccc2c1OB(O)[C@@H]1C[C@H]21` [Compound 28, Acetoxymethyl (1aR,7bS)-5-fluoro-2-hydroxy-1a,7b-dihydro-1H-cyclopropa[c][1,2]benzoxaborinine-4-carboxylate], in [1], the “Average % of initial area ratio at t = 0 min” value is 100%, the “Average % of initial area ratio at t = 5 min” value worked out at 50.8%, the “Average % of initial area ratio at t = 10 min” value is 23.3% and the “Average % of initial area ratio at t = 30 min” value is 19.6%. In data set [1], the half-life at 1 μM was 15 min.
As for `O=C(OCOC(=O)C1CC1)c1c(F)ccc2c1OB(O)[C@@H]1C[C@H]21` [Compound 27], in [1], the “Average % of initial area ratio at t = 0 min” value is on record as 100%, the “Average % of initial area ratio at t = 5 min” value came to 91.4%, the “Average % of initial area ratio at t = 10 min” value turned out to be 80.4% and the “Average % of initial area ratio at t = 30 min” value worked out at 25.0%. Also, the half-life at 1 μM in data set [1] was 14 min.
For `O=C(O)c1nccc2c1OB(O)[C@@H]1C[C@H]21` [Compound 21, (1aR,7bS)-2-hydroxy-1a,7b-dihydro-1H-cyclopropa[6,7]oxaborinino[2,3-c]pyridine-4-carboxylic acid], the inhibition constant (Ki) on CTX-M-14 was < 100 nM; at KPC-2 it was 100 to 1000 nM; on OXA-23, < 100 nM; at NDM-1, 100 to 1000 nM; on P99 it was 100 to 1000 nM; at Pa-AmpC (setting [4]), > 1000 nM. The inhibition constant Ki at VIM-1 was 100 to 1000 nM; on OXA-48, < 100 nM. Further, in [2], the “PAM1154/KPC-2 Biapenem MPC64” value is 1.25. Moreover, the “PAM1032/KPC-2 Biapenem MPC64” value in data set [3] turned out to be 1.25.
For `C[C@]1(Cn2ccnn2)[C@H](C(=O)O)N2C(=O)C[C@H]2S1(=O)=O` [Tazobactam, reference compound], the inhibitory constant (Ki) at KPC-2 is > 1000 nM; at OXA-23, 100 to 1000 nM; on NDM-1, > 1000 nM; at VIM-1, > 1000 nM; at IMP-1, > 1000 nM; on OXA-48 it was 100 to 1000 nM.
With `O=C(O)c1c(F)ccc2c1OB(O)C1CC21` (stereo not drawn) [Compound 4, 5-Fluoro-2-hydroxy-1a,7b-dihydro-1H-cyclopropa[c][1,2]benzoxaborinine-4-carboxylic acid], the inhibition constant (Ki) was < 100 nM on CTX-M-14; < 100 nM at KPC-2; < 100 nM at OXA-23; < 100 nM on P99; < 100 nM on Pa-AmpC (setting [4]); 100 to 1000 nM at VIM-1. The Ki on IMP-1 is > 1000 nM; on OXA-48, < 100 nM. Further, the “PAM1154/KPC-2 Biapenem MPC64” value in [2] turned out to be 2.5. In data set [3], the “PAM1032/KPC-2 Biapenem MPC64” value turned out to be 2.5.
Turning to `COc1ccc2c(c1C(=O)O)OB(O)C(F)=C2` [Compound 8, 3-Fluoro-2-hydroxy-7-methoxy-1,2-benzoxaborinine-8-carboxylic acid], the inhibitory constant (Ki) at CTX-M-14 was < 100 nM; at KPC-2 it was < 100 nM; at OXA-23 it was < 100 nM; at P99, < 100 nM; on Pa-AmpC (setting [4]), < 100 nM; at VIM-1, 100 to 1000 nM. For the same molecule, the Ki on IMP-1 is > 1000 nM; on OXA-48 it was < 100 nM. Besides, the “PAM1154/KPC-2 Biapenem MPC64” value in data set [2] is given as 2.5. For the same molecule, the “PAM1032/KPC-2 Biapenem MPC64” value in data set [3] amounted to 2.5.
